Reference: publication PMC7216583 (Parasites & Vectors, 2020)
Where a name gives a salt, the structure may show the parent alone. Read-outs that look alike come from different tables or passages of the source.

Key:
JAK2 = system: JAK2; parameters: method as in S-inhibitor catalog; details: vendor brief description; ref S-inhibitor catalog; cited from earlier work
[1] = system: Toxoplasma gondii RH-2F tachyzoites; experiment: microbe, parasite or virus in culture; details: 72 h; for inhibition at 5 µM: read-out: Parasite inhibition (%) Mean ± SD
mTOR [2] = system: mTOR; parameters: method as in S-inhibitor catalog; details: vendor brief description; ref S-inhibitor catalog; cited from earlier work
[3] = system: Toxoplasma gondii RH-2F tachyzoites; details: for effect on T. gondii growth in the screen: 5 μM, 72 h
[4] = system: human foreskin fibroblasts (HFFs); details: preliminary screen of compound library; mean
mTOR [5] = system: mTOR; parameters: method as in library vendor description; details: ref library vendor description; cited from earlier work
in vitro = details: human; for viability at 72 h, 5 µM: Host viability (%) Mean ± SD; for viability at 72 h: Host viability (%) mean
VEGFR-2 = system: VEGFR-2; parameters: method as in vendor brief description; details: ref vendor brief description; cited from earlier work
PDGFRβ = system: PDGFRβ; parameters: method as in S-inhibitor; details: ref S-inhibitor; cited from earlier work
[6] = system: chymotrypsin-like proteolytic (β5) site of the 20S proteasome; parameters: method as in S-inhibitor; details: ref S-inhibitor; cited from earlier work
Aurora B = system: Aurora B; parameters: method as in S-inhibitor catalog; details: vendor brief description; ref S-inhibitor catalog; cited from earlier work
HSP90 = details: ref library vendor description, cited from earlier work
Flt4 = system: Flt4; parameters: method as in library vendor description; details: ref library vendor description; cited from earlier work
HDAC = system: HDAC; parameters: method as in S-inhibitor; details: ref S-inhibitor; cited from earlier work
c-Kit = system: c-Kit; parameters: method as in library vendor description; details: ref library vendor description; cited from earlier work
VEGFR1 = system: VEGFR1; parameters: method as in library vendor description; details: ref library vendor description; cited from earlier work
Ret = system: Ret; parameters: method as in library vendor description; details: ref library vendor description; cited from earlier work
VEGFR2 = system: VEGFR2; parameters: method as in library vendor description; details: ref library vendor description; cited from earlier work
VEGFR3 = system: VEGFR3; parameters: method as in library vendor description; details: ref library vendor description; cited from earlier work
PDK-1 = system: PDK-1; parameters: method as in library vendor description; details: ref library vendor description, cited from earlier work
[7] = read-out: Parasite inhibition (%) mean, preliminary screen, mean
[8] = read-out: Parasite inhibition (%) mean, preliminary screen of compound library, mean
[9] = preliminary screen of compound library, mean

Cc1cc(Nc2nc(N[C@@H](C)c3ccc(F)cc3)c(C#N)cc2F)[nH]n1 [AZ 960]
IC50 (JAK2): < 3 nM
Ki (JAK2): 0.45 nM
inhibition of growth at 5 µM [1, 7]: -2.1%

c1cncc(CN2CCC(n3ncc4c(N5CCOCC5)nc(-c5ccc6[nH]ccc6c5)nc43)CC2)c1 [WAY-600]
IC50 (mTOR [2]): 9 nM
inhibition of growth at 5 µM [1, 8]: 35.5%

AT101
Parasite inhibition (%) mean [3]: 70.4%
Host viability (%) mean [4]: 68.8%

CO[C@H]1C[C@H]2CC[C@@H](C)[C@@](O)(O2)C(=O)C(=O)N2CCCC[C@H]2C(=O)O[C@H]([C@H](C)C[C@@H]2CC[C@H](OC(=O)C(C)(CO)CO)[C@H](OC)C2)CC(=O)[C@H](C)/C=C(\C)[C@@H](O)[C@@H](OC)C(=O)[C@H](C)C[C@H](C)/C=C/C=C/C=C/1C [Temsirolimus (Torisel)]
IC50 (mTOR [5]): 1760 nM
inhibition of growth at 5 µM [1, 7]: 22.4%

COC(=O)Nc1ccc(-c2nc(N3CCOCC3)c3cnn(C4CCN(Cc5cccnc5)CC4)c3n2)cc1 [WYE-687]
IC50 (mTOR [2]): 7 nM
inhibition of growth at 5 µM [1, 8]: 28.7%

Cc1cc(F)c(Nc2ncnc3cc(OCc4ccccc4)ccc23)cc1O [ZM 323881 HCl, reference compound]
viability at 72 h, 5 µM (in vitro): 85.5 ± 5.4%
viability at 72 h (in vitro): 85.5%
IC50 (VEGFR-2): < 2 nM
inhibition at 5 µM [1]: 79.9 ± 1.4%

COCCOc1ccc2c(c1)ncn2-c1ccc2cccc(N3CCC(N)CC3)c2n1 [CP 673451]
IC50 (PDGFRβ): 1 nM
inhibition of growth at 5 µM [1, 7]: -13.8%

CC(C)C[C@H](NC(=O)CNC(=O)c1cc(Cl)ccc1Cl)B(O)O [MLN2238]
IC50 [6]: 3.4 nM
Ki [6]: 0.93 nM
inhibition of growth at 5 µM [1, 7]: 13.3%

CCS(=O)(=O)c1cccc(-c2cc(C(=O)NC3CCN(C)CC3)c(C)c3[nH]c4ncc(C)cc4c23)c1 [TAK-901]
viability at 72 h (in vitro): 52.7%
IC50 (Aurora B): 15 nM
inhibition of growth at 5 µM [1, 8]: 77.8%

MLN9708
Parasite inhibition (%) mean ([3]; preliminary screen, mean): 17.5%
IC50 [6]: 3.4 nM
Ki [6]: 0.93 nM

COc1c(C)cnc(Cn2cnc3c(Cl)nc(N)nc32)c1C [BIIB021]
inhibition of growth at 5 µM [1, 7]: 3.5%

COC(=O)N[C@H](C(=O)N[C@@H](Cc1ccccc1)[C@@H](O)CN(Cc1ccc(-c2ccccn2)cc1)NC(=O)[C@@H](NC(=O)OC)C(C)(C)C)C(C)(C)C [Atazanavir, reference compound]
effect on T. gondii growth in the screen [3]: significantly inhibited T. gondii growth
viability at 72 h, 5 µM (in vitro): 90.7 ± 2.8%
inhibition at 5 µM [1]: 93.6 ± 2.1%

N#CC(=C(/N)Sc1ccccc1N)/C(C#N)=C(/N)Sc1ccccc1N [U0126, reference compound]
effect on T. gondii growth in the screen [3]: no effect on T. gondii growth

CN1CCN(C2CCN(C(=O)Nc3cc(Oc4ccc(NC(=O)C5(C(=O)Nc6ccc(F)cc6)CC5)c(F)c4)ccn3)CC2)CC1 [Golvatinib (E7050)]
viability at 72 h (in vitro): 78.3%
IC50 (VEGFR-2): 16 nM
inhibition of growth at 5 µM [1, 8]: 76.8%

CNC(=O)CN(CCN(CCN(CC(=O)[O-])CC(=O)NC)CC(=O)[O-])CC(=O)[O-].O.[Gd+3] [Gadodiamide (Omniscan)]
Parasite inhibition (%) mean [3, 9]: -0.2%

Cc1cc(Nc2cc(N3CCN(C)CC3)nc(/C=C/c3ccccc3)n2)n[nH]1 [ENMD-2076]
viability at 72 h (in vitro): 66.6%
IC50 (Flt4): 15.9 nM
inhibition of growth at 5 µM [1, 7]: 74.7%

CO[C@H]1C[C@H]2CC[C@@H](C)[C@@](O)(O2)C(=O)C(=O)N2CCCC[C@H]2C(=O)O[C@H]([C@H](C)C[C@@H]2CC[C@H](OP(C)(C)=O)[C@H](OC)C2)CC(=O)[C@H](C)/C=C(\C)[C@@H](O)[C@@H](OC)C(=O)[C@H](C)C[C@H](C)/C=C/C=C/C=C/1C [Deforolimus (Ridaforolimus)]
IC50 (mTOR [5]): 0.2 nM
inhibition of growth at 5 µM [1, 7]: 36.8%

CCN(CC)Cc1ccc2cc(COC(=O)Nc3ccc(C(=O)NO)cc3)ccc2c1 [ITF2357 (Givinostat)]
IC50 (HDAC): 7.5 to 16 nM
inhibition of growth at 5 µM [1, 7]: 62.2%

CN1CCN(c2cccc(Nc3nc4c(-c5ccc(S(C)(=O)=O)cc5)cccn4n3)c2)CC1 [CEP33779]
IC50 (JAK2): 1.8 nM
inhibition of growth at 5 µM [1, 8]: 7.8%

CO[C@H]1/C=C\C=C(\C)C(=O)NC2=CC(=O)C(NCCN(C)C)=C(C[C@@H](C)C[C@H](OC)[C@H](O)[C@@H](C)/C=C(\C)[C@@H]1OC(N)=O)C2=O [17-DMAG HCl (Alvespimycin)]
IC50 (HSP90; read-out: IC50 HSP90): 62 nM
inhibition of growth at 5 µM [1, 7]: 4.3%

CNC(=O)c1cc(Oc2ccc(NC(=O)Nc3ccc(Cl)c(C(F)(F)F)c3)c(F)c2)ccn1 [Regorafenib (BAY 73-4506)]
viability at 72 h (in vitro): 68.2%
IC50 (c-Kit): 7 nM
IC50 (Ret): 1.5 nM
inhibition of growth at 5 µM [1, 7]: 76.7%

COc1cc(Nc2ncc(F)c(Nc3ccc4c(n3)N(COP(=O)(O)O)C(=O)C(C)(C)O4)n2)cc(OC)c1OC [R935788]
Parasite inhibition (%) mean ([3]; preliminary screen, mean): 28.5%

Cc1[nH]c(/C=C2\C(=O)Nc3ccc(S(=O)(=O)Cc4c(Cl)cccc4Cl)cc32)c(C)c1C(=O)N1CCC[C@@H]1CN1CCCC1 [PHA-665752, reference compound]
effect on T. gondii growth in the screen [3]: significantly inhibited T. gondii growth
viability at 72 h, 5 µM (in vitro): 80.5 ± 1.3%
viability at 72 h (in vitro): 80.5%
inhibition at 5 µM [1]: 92.3 ± 3.1%

CS(=O)(=O)N1CCc2c(-c3cnc(N)nc3)nc(N3CCOCC3)nc21 [CH5132799]
IC50 (mTOR [2]): 1600 nM
inhibition of growth at 5 µM [1, 8]: 48.9%

Cl.N=C(N)N [Guanidine HCl]
Parasite inhibition (%) mean [3, 9]: -3.4%

Ulipristal
Parasite inhibition (%) mean [3, 9]: -0.7%

Cc1cc(C)c(/C=C2\C(=O)Nc3ccccc32)[nH]1 [semaxanib, reference compound]
effect on T. gondii growth in the screen [3]: no effect on T. gondii growth

COc1cc2nccc(Oc3ccc(NC(=O)NC4CC4)c(Cl)c3)c2cc1C(N)=O [E7080 (Lenvatinib)]
viability at 72 h (in vitro): 52.1%
IC50 (VEGFR2): 4 nM
IC50 (VEGFR3): 5.2 nM
inhibition of growth at 5 µM [1, 7]: 84.1%

CCCCc1nc2cc(/C=C/C(=O)NO)ccc2n1CCN(CC)CC [SB939 (Pracinostat)]
IC50 (HDAC): 40 to 140 nM
inhibition of growth at 5 µM [1, 7]: 34.6%

COC(=O)Nc1ccc(-c2nc(N3CCOCC3)c3cnn(C4CCN(C(=O)OC)CC4)c3n2)cc1 [WYE-354]
IC50 (mTOR [5]): 5 nM
inhibition of growth at 5 µM [1, 7]: 43.5%

CNC(=O)Nc1ccc(-c2nc(N3CC4CCC(C3)O4)c3cnn(C4CCC5(CC4)OCCO5)c3n2)cc1 [WYE-125132]
IC50 (mTOR [2]): 0.19 nM
inhibition of growth at 5 µM [1, 8]: 44.4%

CN[C@H](CC(C)C)C(=O)N[C@H]1C(=O)N[C@@H](CC(N)=O)C(=O)N[C@H]2C(=O)N[C@H]3C(=O)N[C@@H](C(=O)N[C@H](C(=O)O)c4cc(O)cc(O)c4-c4cc3ccc4O)[C@H](O)c3ccc(c(Cl)c3)Oc3cc2cc(c3O[C@H]2O[C@H](CO)[C@@H](O)[C@H](O)[C@H]2O[C@H]2C[C@@](C)(N)[C@H](O)[C@H](C)O2)Oc2ccc(cc2Cl)[C@H]1O.Cl [Vancomycin HCl (Vancocin)]
Parasite inhibition (%) mean [3]: 0.8%

Cc1c(CN2CCN(C(=O)[C@H](C)O)CC2)sc2c(N3CCOCC3)nc(-c3cnc(N)nc3)nc12 [GDC-0980 (RG7422)]
Ki (mTOR [2]): 17 nM
inhibition of growth at 5 µM [1, 8]: 33.7%

O=C(Nc1cccc(Nc2ncc(Br)c(NCCc3cnc[nH]3)n2)c1)N1CCCC1 [BX-912]
IC50 (PDK-1; read-out: IC50 PDK-1): 12 nM
inhibition of growth at 5 µM [1, 7]: 1.4%

NCC(=O)Nc1ccc(-n2nc(C(F)(F)F)cc2-c2ccc3c(ccc4ccccc43)c2)cc1 [OSU-03012 (AR-12)]
IC50 (PDK-1; recombinant PDK-1, read-out: IC50 recombinant PDK-1): 5000 nM
inhibition of growth at 5 µM [1, 7]: 5.4%
